Test results reported in US4886812A, “Tetrahydro-benzthiazoles, the preparation thereof and their use as intermediate products or as pharmaceuticals” (Dr. Karl Thomae GmbH, priority 1984, dated 1989).
Structures can show the parent of a compound that is named as a salt.

What was measured:
[1] = tested on: presynaptic dopamine receptors; experiment: Inhibition of the exploratory activity of mice (infra-red light barrier cages); type: in vivo
Experimental: The activity was measured in observation cages fitted with an infra-red light barrier. […] Groups of 5 animals are given the test substance, unless otherwise specified, in a dosage of 10 mg/kg by subcutaneous injection. […] In parallel or alternately with groups treated with test substance, control groups treated with common salt are investigated (0.9% solution; 0.1 ml/10 g of body weight by subcutaneous route).

dopamine turnover = experiment: Inhibition of dopamine turnover (AMPT-induced dopamine reduction in brain); type: in vivo, mice
Experimental: The inhibition of dopamine turnover was measured in mice. In animals treated with α-methylparatyrosine (AMPT) (250 mg/kg by intraperitoneal route) 15 minutes into the experiment, the dopamine concentration throughout the brain decreases as the test progresses. By administering substances which act on autoreceptors, the dopamine reduction (compared with control animals treated with common salt solution) can be prevented. Test substances are administered at time O of the experiment in a dosage of 5 mg/kg s.c., unless otherwise stated. Four hours and 15 minutes into the experiment the animals are killed and the brains are subjected to dopamine determination using high pressure liquid chromatography with electrochemical detection. This determines the percentage inhibition, caused by the test substance, of the dopamine reduction induced by AMPT.

dopamine synthesis = experiment: Inhibition of dopamine synthesis (γ-butyrolactone-stimulated DOPA accumulation in corpus striatum); type: in vivo
Experimental: For this purpose, 5 animals are given the test substance in a dosage of 10 mg/kg s.c., unless otherwise stated. […] In order to inhibit the decarboxylation of DOPA, 200 mg/kg of 3-hydroxybenzyl-hydrazinhydrochloride are administered by intraperitoneal route after a further 5 minutes. Forty minutes after administration of the substance the animals are killed and the corpus striatum is prepared. The DOPA content is measured by HPLC with electrochemical detection (standard: dihydroxybenzylamine).
The percentage inhibition, produced by the test substance, of the DOPA accumulation stimulated by γ- butyrolactone compared with the controlled animals treated with 0.9% common salt solution is determined.

[2] = tested on: Rhesus monkeys (MPTP model for Parkinson's disease)
From the text: The discovery of the neurotoxin 1-methyl-4-phenyl-1,2,3,6-tetrahydropyridine (MPTP) (Langston et al., Science 219, 979 (1983)) provided an animal model for Parkinson's disease.
The irreversible neurological syndrome triggered by MPTP in man and in monkeys largely resembles the idiopathic Parkinson's disease in its clinical, pathological, biochemical and pharmacological characteristics (Markey et al., Nature 311, 464 (1984)). The reason for this convincing similarity is the fact that MPTP selectively destroys the small group of dopaminergic nerve cells in the substantia nigra of the brain which are also destroyed by degenerative processes in naturally occurring Parkinson's disease.

[3] = 10 mg/kg s.c., measurement of exploration 75 minutes after administration
[4] = 5 mg/kg s.c., AMPT 250 mg/kg i.p., brain dopamine at 4 hours 15 minutes

SMILES: C=CCN(CC=C)C1CCc2nc(N)sc2C1.Cl.Cl (stereo not shown) [Substance F, 2-amino-6-diallylamino-4,5,6,7-tetrahydrobenzthiazol-dihydrochloride]
- Inhibition of activity in percent compared with controls treated with common salt [1, 3]: 60%

SMILES: CN(C)C1CCc2nc(N)sc2C1.Cl.Cl (stereo not shown) [Substance A, 2-amino-6-dimethylamino-4,5,6,7-tetrahydrobenzthiazol-dihydrochloride]
- Dosage giving 50 percent inhibition of activity (read off from the dosage/activity curve) ([1]; 50 percent inhibition, curve in the range 1-10 mg/kg s.c.): 2.7 mg/kg s.c.
- Inhibition of activity in percent compared with controls treated with common salt ([1]; at 2.7 mg/kg s.c., read off from the dosage/activity curve (1-10 mg/kg s.c.)): 50%
- ED50 (dopamine turnover; Mus musculus, sc, 50 % inhibition, curve in the range 0.5-3 mg/kg s.c., read-out: Dosage giving 50 % inhibition of AMPT effect (read off from the dosage/activity curve)): 0.95 mg/kg
- % inhibition of AMPT effect (dopamine turnover; at 0.95 mg/kg s.c., read off from the dosage/activity curve (0.5-3 mg/kg s.c.)): 50%
- Inhibition of DOPA accumulation in percent compared with controls treated with common salt (dopamine synthesis; at 0.55 mg/kg s.c., read off from the dosage/activity curve (0.1-1.0 mg/kg s.c.)): 50%
- ED50 (dopamine synthesis; sc, 50 percent inhibition, curve in the range 0.1-1.0 mg/kg s.c., read-out: Dosage giving 50 percent inhibition of DOPA accumulation (read off from the dosage/activity curve)): 0.55 mg/kg

SMILES: C=CCN(Cc1ccc(Cl)cc1)C1CCc2nc(N)sc2C1 (stereo not shown) [Substance E, 6-[N-ally-N-(4-chloro-benzyl)-amino]-2-amino-4,5,6,7-tetrahydro-benzthiazol-dihydrochloride]
- Inhibition of activity in percent compared with controls treated with common salt [1, 3]: 56%
- % inhibition of AMPT effect (dopamine turnover; [4]): 32%

SMILES: C=CCNc1nc2c(s1)CC(N(C)C)CC2.Cl.Cl (stereo not shown) [Substance D, 2-allylamino-6-dimethylamino-4,5,6,7-tetrahydro-benzthiazol-dihydrochloride]
- Inhibition of activity in percent compared with controls treated with common salt [1, 3]: 76%
- % inhibition of AMPT effect (dopamine turnover; [4]): 52%

SMILES: Cl.Cl.Nc1nc2c(s1)CC(N1CCCC1)CC2 (stereo not shown) [Substance B, 2-amino-6-pyrrolidino-4,5,6,7-tetrahydrobenzthiazol-dihydrochloride]
- Inhibition of activity in percent compared with controls treated with common salt ([1]; 10 mg/kg s.c., measured one hour after administration): 94%
- % inhibition of AMPT effect (dopamine turnover; [4]): 67%

SMILES: CCCNC1CCc2nc(N)sc2C1.Cl.Cl (stereo not shown) [Substance C, 2-amino-6-n-propylamino-4,5,6,7-tetrahydrobenzthiazol-dihydrochloride]
- Inhibition of activity in percent compared with controls treated with common salt [1, 3]: 20%
- Residual symptoms ([2]; 10-100 μg/kg intramuscular): an occasional transient and slight resting tremor and a reduction in rough strength
- Sedation ([2]; 10-100 μg/kg intramuscular): no sedation
- Circulation in the skin ([2]; 10-100 μg/kg intramuscular, compared with before administration): appeared to be greater than before
- Effect of a fresh administration ([2]; after reversion to Parkinson symptoms): again leads to an improvement or substantial removal of the clinically pathological manifestations
- Inhibition of DOPA accumulation in percent compared with controls treated with common salt (dopamine synthesis; 10 mg/kg s.c., γ-butyrolactone 750 mg/kg i.p., 40 minutes after administration): 60%
